From the supplement of paper PMC10307832

How the values were obtained:
Test in all cases: relative viability (nuclei count vs DMSO), 5 days (fraction); higher = more cells survive
XMD14-99 + Crizotinib = compound: CN1CCN(CC1)C2=CC(=C(C=C2)NC3=NC(=C(S3)C(=O)C4=C(C=CC=C4Cl)Cl)N)OC [XMD14-99] + C[C@@H](Oc1cc(-c2cnn(C3CCNCC3)c2)cnc1N)c1c(Cl)ccc(F)c1Cl [Crizotinib] (partner 1 µM)
Procedure, shortened: (§1)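 For relative viability, nuclei counts in treated wells were divided by those in vehicle wells. Lung cancer cell lines had been pin-tool dosed in 1536-well plates the day after seeding and cultured for 5 days, then fixed and stained in one step (final 0.05% Triton X-100, 1% formaldehyde, 1 ug/ml Hoechst) and imaged at 4×. Doses were one drug alone or a fixed anchor-drug dose plus five library-drug doses (not always all listed) in √10 steps, and values are duplicate-plate medians.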

AZD1208 + Trametinib = compound: N[C@@H]1CCCN(c2c(/C=C3\SC(=O)NC3=O)cccc2-c2ccccc2)C1 [AZD1208] + CC(=O)Nc1cccc(-n2c(=O)n(C3CC3)c(=O)c3c(Nc4ccc(I)cc4F)n(C)c(=O)c(C)c32)c1 [Trametinib] (partner 0.02 µM)
Procedure, shortened: as §1

AZD1208 + Tozasertib = compound: N[C@@H]1CCCN(c2c(/C=C3\SC(=O)NC3=O)cccc2-c2ccccc2)C1 [AZD1208] + Cc1cc(Nc2cc(N3CCN(C)CC3)nc(Sc3ccc(NC(=O)C4CC4)cc3)n2)n[nH]1 [Tozasertib] (partner 0.1 µM)
Procedure, shortened: as §1

AZD1208 + Decitabine = compound: N[C@@H]1CCCN(c2c(/C=C3\SC(=O)NC3=O)cccc2-c2ccccc2)C1 [AZD1208] + Nc1ncn([C@H]2C[C@H](O)[C@@H](CO)O2)c(=O)n1 [Decitabine] (partner 2 µM)
Procedure, shortened: as §1

UMC-11
relative viability (XMD14-99 + Crizotinib; first compound 0.08 µM): 0.619
relative viability (XMD14-99 + Crizotinib; first compound 0.8 µM): 0.582
relative viability (XMD14-99 + Crizotinib; first compound 2.53 µM): 0.721
relative viability (XMD14-99 + Crizotinib; first compound 8 µM): 0.577
relative viability (AZD1208 + Trametinib; first compound 0.08 µM): 0.498
relative viability (AZD1208 + Trametinib; first compound 0.253 µM): 0.623
relative viability (AZD1208 + Trametinib; first compound 0.8 µM): 0.454
relative viability (AZD1208 + Trametinib; first compound 2.53 µM): 0.381
relative viability (AZD1208 + Trametinib; first compound 8 µM): 0.313
relative viability (AZD1208 + Tozasertib; first compound 0.08 µM): 0.204
relative viability (AZD1208 + Tozasertib; first compound 0.253 µM): 0.205
relative viability (AZD1208 + Tozasertib; first compound 0.8 µM): 0.211
relative viability (AZD1208 + Tozasertib; first compound 2.53 µM): 0.207
relative viability (AZD1208 + Tozasertib; first compound 8 µM): 0.21
relative viability (AZD1208 + Decitabine; first compound 0.08 µM): 0.478
relative viability (AZD1208 + Decitabine; first compound 0.253 µM): 0.513
relative viability (AZD1208 + Decitabine; first compound 0.8 µM): 0.49
relative viability (AZD1208 + Decitabine; first compound 2.53 µM): 0.515
relative viability (AZD1208 + Decitabine; first compound 8 µM): 0.383
